According to the METLIN SMRT retention time set (Domingo-Almenara et al. 2019):

Experiment: gradient 5% acetonitrile 3 min, to 50% in 2 min, to 85% in 15 min, held 3 min, 100 µL/min
Details: column: Zorbax Extend-C18 2.1 x 50 mm; eluents: water / acetonitrile, 0.1% formic acid
Method in brief: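 Over 3 months, pure standards in mixtures of ~100 molecules were run by HPLC coupled to a quadrupole time-of-flight mass spectrometer in positive and negative ionization mode. The column was a Zorbax Extend-C18 (2.1 × 50 mm, 1.8 μm) at 100 μL/min, eluted with water and acetonitrile each holding 0.1% formic acid, with 40 μL dead and 900 μL dwell volumes. Retention time was determined from adduct peaks chosen by software and checked manually.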

| Structure (SMILES) | RP-LC retention time [s] |
| --- | --- |
| Cc1ccc(-n2c(N3CCCC(C(=O)NCc4ccc(F)cc4)C3)nc3ccsc3c2=O)cc1 (stereo not given) | 919 |
| COc1ccc(OC)c(S(=O)(=O)N2CCN(c3ccccn3)CC2)c1 | 594 |
| COc1cc(Cl)ccc1C(=O)N(CC1CCOC1)C1CC1 (stereo not given) | 803 |
| Cc1ccc2c(c1)N(C(=O)Cn1cc(-c3noc(-c4ccncc4)n3)nc1C)CCO2 | 735 |
| Cc1nc2cc(-c3noc(-c4ccc(F)c(F)c4)n3)ccc2o1 | 1100 |
| CCc1nc2cc3c(cc2n1CC(=O)Nc1ccc2c(c1)OCCO2)OCCO3 | 618 |
| COc1ccc(C2Cn3nnc(-c4nc(-c5ccc(C)c(C)c5)no4)c3CO2)cc1 (stereo not given) | 1270 |
| CCCNC(=O)C1CCCN(c2ccc(SCC(=O)Nc3ccc(C)cc3C)nn2)C1 (stereo not given) | 733 |
| CN(C)CCc1c[nH]c2ccc(CS(=O)(=O)N3CCCC3)cc12 | 629 |
| Cc1cccc(NC(=O)Cc2cn(C)c3ncccc23)c1 | 722 |
| Cc1ccc(NC(=O)C2CCN(S(=O)(=O)c3ccc4c(c3)sc(=O)n4C)CC2)nc1 | 697 |
| CC(C)(C)c1ccc(C(=O)NC2CCN(c3cc(-c4ccc(Cl)cc4)[nH]n3)C2)cc1 (stereo not given) | 976 |
| Cc1ccc(CN2CCN(CC(=O)Nc3ccc(C)cn3)C(=O)C2=O)cc1 | 664 |
| CC1CCCN(c2ncc(C(=O)NCc3ccccc3)c(N)n2)C1 (stereo not given) | 597 |
| COc1ccc(-c2nnc(CC(=O)NCCC3=CCCCC3)o2)cc1 | 889 |
| O=C(C1CCN(S(=O)(=O)c2ccc3[nH]c(=O)ccc3c2)CC1)N1CCN(c2ccccc2)CC1 | 735 |
| CCc1ccc(CNC(=O)CCC(=O)N2CCCn3nc(C)cc32)cc1 | 666 |
| CCC(C)NC(=O)C1CC(=O)N(c2ccc3c(c2)CCN3C(C)=O)C1 (stereo not given) | 630 |
| CCCCOc1ccc(NC(=O)c2oc3ccc(F)cc3c2C)c2cccnc12 | 850 |
| Cc1cc(S(=O)(=O)N(C)CC2CCOCC2)ccc1F | 879 |
| CN1C(=O)c2ccccc2Oc2ccc(C(=O)NC3CCCC3)cc21 | 725 |
| CC(C(=O)NCCCN1CCOCC1)n1c(=O)c(C(F)(F)F)nc2ccccc21 (stereo not given) | 644 |
| Nc1ccc(Oc2ccc(N)c([N+](=O)[O-])c2)cc1[N+](=O)[O-] | 899 |

| Structure (SMILES) | RP-LC retention time [s] |
| --- | --- |
| CC(C)(C)c1ccc(-c2nc(-c3ccc(S(=O)(=O)N4CCOCC4)cc3)no2)cc1 | 1400 |
| Cc1ccc(S(=O)(=O)C2=C(O)C(=O)N(Cc3ccco3)C2c2ccc(F)cc2)cc1 (stereo not given) | 931 |
| COC(=O)c1cccc(NC(=O)Cn2nc3c(N4CCC(C)CC4)nccn3c2=O)c1 | 786 |
| COc1c(C(=O)NC2CCCC2)sc2ccc(F)cc12 | 1080 |
| COc1ccc(Cl)cc1NC(=O)N1CCC2(CC1)NC(=O)c1cc(C)ccc1N2C | 895 |
| CC(=O)NCc1nc(-c2ccc(S(=O)(=O)N3CCC(C(=O)N4CCCC4)CC3)cc2)no1 | 639 |
| Cc1ccccc1NC(=O)N1CCC(c2nc(C(=O)N3CCOCC3)c(C)o2)CC1 | 673 |
| Cc1c(C(=O)N2CCCC2)cnn1-c1cc(-c2nc(C3CC3)no2)ccn1 | 864 |
| CC(=O)N1CCc2ccccc2C1C(=O)NCc1ccc(Br)cc1 (stereo not given) | 835 |
| Cc1ccc(-c2noc(Cc3nnc(-c4cccc(Br)c4)o3)n2)cc1C | 1230 |
| CC1CCCC(NC(=O)Cn2cnc3onc(-c4ccc(Cl)cc4)c3c2=O)C1C (stereo not given) | 1100 |
| O=C(N[C@H]1C[C@@H]2C[C@H]1N(C(=O)NCc1cccc(F)c1)C2)c1cccs1 | 765 |
| O=C(NCc1ccccc1Br)c1cn2c(n1)CCCC2 | 610 |
| CC1=C(c2ccc(F)cc2)S(=O)(=O)N=C1N1CCC(NC(=O)c2ccoc2)CC1 | 747 |
| COc1ccc(-n2ncc3c(=O)n(Cc4nc(-c5ccc(C)cc5)no4)cnc32)cc1 | 1030 |
| CC1CCN(S(=O)(=O)c2ccc3nn(CC(=O)OC(C)(C)C)c(=O)n3c2)CC1 | 999 |
| CC(C)(C)OC(=O)Cn1nc2ccc(S(=O)(=O)N3CCSCC3)cn2c1=O | 888 |
| O=C(Nc1ccccc1F)C1CC(=O)N(c2ccc3c(c2)CCN3C(=O)C2CC2)C1 (stereo not given) | 749 |
| CCCN(CC1CCOC1)C(=O)c1ccccc1Cl (stereo not given) | 788 |
| CC1CCN(C(=O)CC2CCN(S(=O)(=O)c3ccc(Cl)s3)CC2)CC1 | 1040 |
| O=C(c1ccc(F)c(Cl)c1)N1CCCC1c1nc(-c2ccccc2)no1 (stereo not given) | 1040 |
| COc1ccc(SCCc2ccncc2)cc1 | 662 |
| Cc1ccc(F)cc1NC(=O)Cn1cnc2nc(N3CCCC(C(=O)NC4CC4)C3)sc2c1=O (stereo not given) | 686 |

| Structure (SMILES) | RP-LC retention time [s] |
| --- | --- |
| CSc1cccc(NC(=O)NC2CCN(c3cc(C)cc(C)c3)C2=O)c1 (stereo not given) | 929 |
| C=CCN1CCN(c2ccc3nnc(CCc4nc(-c5ccc(F)cc5)no4)n3n2)CC1 | 622 |
| c1cc(CN2CCC(Oc3nccnc3N3CCOCC3)C2)ccn1 (stereo not given) | 546 |
| CN(C)c1nccnc1OC1CCN(C(=O)c2ccn[nH]2)C1 (stereo not given) | 604 |
| COC(=O)c1ccc(CSc2nnc(-c3cn(C)nc3OC)n2C)cc1 | 641 |
| Cc1cc(-c2nnc(-c3ccco3)o2)c(C)n1CC(=O)Nc1cc(F)cc(F)c1 | 929 |
| COc1ccc(CC(=O)NC2CCN(c3nnc4ccccn34)CC2)cc1 | 626 |
| CCn1c(=O)c2ccccc2n(Cc2nc(-c3ccc(C)c(C)c3)no2)c1=O | 1100 |
| COCC1(O)CCOC2(CCN(Cc3ccccc3F)CC2)C1 (stereo not given) | 544 |
| Cn1c(SCC(=O)N2CCCc3ccccc32)nc2cc(-c3ccccc3)sc2c1=O | 1180 |
| COc1ccc(CCNC(=O)CN2C(=O)NC3(CCC(C)CC3)C2=O)cc1OC (stereo not given) | 740 |
| Cc1noc(-c2nn(C)c3c2CN(C(=O)C2CCCC2)CC3)n1 | 722 |
| Cc1cc(C2CCCN2C(=O)Nc2ccc(C)c(C)c2)on1 (stereo not given) | 728 |
| Cc1ccc(N2CCC(N)C2=O)cc1C (stereo not given) | 584 |
| CN1CCCc2cc(C(CNC(=O)C(=O)Nc3ccc4c(c3)OCCO4)N3CCCC3)ccc21 (stereo not given) | 718 |
| CCN1C(=O)COc2ccc(-c3noc(CNS(=O)(=O)c4ccccc4)n3)cc21 | 842 |
| CCNC(=O)N1CCc2c([nH]c3ccccc23)C12C(=O)N(C)c1ccccc12 (stereo not given) | 756 |
| Cc1nc2cc(N3CCCC(C(=O)Nc4ccc5c(c4)OCCO5)C3)cnc2nc1C (stereo not given) | 711 |
| CC(C)n1c(CCNC(=O)c2ccc(C#N)cc2)nc2cccnc21 | 639 |
| Cc1onc(-c2ccc(Br)s2)c1C(=O)NCCCN1CCN(C)CC1 | 611 |
| CSc1ccc(-c2nc3cnccn3c2Nc2ccc3c(c2)OCCO3)cc1 | 863 |
| COc1ccccc1CNC(=O)CN1C(=O)CSc2cccn2-c2ccccc21 | 613 |
| COC(=O)C1=C(CN2CCN(C)CC2)NC(=O)NC1c1ccc(Cl)cc1 (stereo not given) | 604 |

| Structure (SMILES) | RP-LC retention time [s] |
| --- | --- |
| COC(=O)c1cc(S(=O)(=O)N2CCCC2C(=O)Nc2ccc(F)cc2)cn1C (stereo not given) | 830 |
| Cc1cc(C)n(-c2ccnc(N3CCC(C(=O)N4CCC5(CC4)OCCO5)CC3)n2)n1 | 712 |
| Cc1cc(NC(=O)Cn2cccc2-c2nc(-c3ccc4c(c3)OCO4)no2)n[nH]1 | 786 |
| COc1ccc(CCNc2ncnc(N)c2[N+](=O)[O-])cc1OC | 660 |
| CCn1cc(S(=O)(=O)Nc2ccc(C)c(F)c2)c2cccnc21 | 799 |
| CCC(=O)N(C1CCOCC1)C1CCN(S(=O)(=O)c2ccc(F)c(C)c2)CC1 | 836 |
| Cc1cc(-c2nnc(C3CCC3)o2)c(C)n1CC(=O)NCc1cccc(Cl)c1 | 897 |
| CN1C(=O)[C@H]2CN(Cc3cc(F)ccc3F)C[C@H]2C1=O | 602 |
| Cc1ccccc1CC(=O)N1CCc2cc(-c3ccno3)ccc21 | 1020 |
| Cc1noc([C@@H]2CN(C(=O)Cc3ccsc3)C[C@H]2C(N)=O)n1 | 618 |
| CC(C)c1nnc(-c2cccnc2N2CCN(C(=O)c3ccc4cc[nH]c4c3)CC2)o1 | 777 |
| CCn1c(=O)c(=O)n(CC(=O)NCCN2CCCC2)c2cccnc21 | 559 |
| CCOc1ccccc1N(C)C(=O)Cc1c(C(=O)O)c(C)cn1C | 773 |
| CCNC(=O)C1CCCN(c2nc3ncn(CC(=O)Nc4ccc(F)c(Cl)c4)c(=O)c3s2)C1 (stereo not given) | 698 |
| O=C(c1cccs1)N1CCCN(c2ccc(=O)n(-c3ccccc3)n2)CC1 | 700 |
| Cc1nc(-c2cn(C(C)C)c3ncccc23)sc1C(=O)NCc1ccccc1F | 1030 |
| Cc1ccc(C(=O)N2CCC(n3c(C)cnc3C)C2)s1 (stereo not given) | 585 |
| CC(C)CNC(=O)c1ccc2c(c1)Sc1ncccc1C(=O)N2C(C)C | 805 |
| CC(C)NC(=O)C1CCCN(c2nc3ncn(CC(=O)Nc4ccccc4)c(=O)c3s2)C1 (stereo not given) | 686 |
| CCCCN1C(=O)C(C)(C(=O)Nc2ccc(F)c(F)c2)Oc2cccnc21 (stereo not given) | 1070 |
| Cc1nc(-c2noc(-c3ccc(F)cc3)n2)cn1CC(=O)NCc1ccc(F)cc1 | 832 |
